These results are taken from patent US9573975B2, “Melanoma antigen peptide and uses thereof” (INSERM (INSTITUT NATIONAL DE LA SANTE ET DE LA RECHERCHE …, priority 2012, dated 2017).

Experiment [1] has as its system CD4 T cells in PBMC from healthy donors. The experiment is described as follows: PBMC from healthy donors stimulated with MELOE-1, restimulated with overlapping peptides, CD4/TNF-α staining. Conditions: for healthy donors in whom CD4 responses against the region were detected: seven healthy donors, TNFα production. The experiment is classed as cell-based, human. The method, then: FIG. 1: (A) Percentages of TNF-α producing CD4 T cells among positive microcultures. Fourteen days after PBMC stimulation with MELOE-1 whole polypeptide (2-46), microcultures were re-stimulated with each indicated peptide during 5 hours. TNF-α production was then assessed by a double labeling TNF-α-CD4. Results were analyzed with a non-parametric test (Kruskal-Wallis) followed by a Dunns post-test. (B) Frequency of microcultures containing CD4 T cells specific for MELOE-1 peptides (assessed by TNF-α intracellular staining after re-stimulation with the 4 indicated peptides). 624 microcultures (from 7 healthy donors) were analyzed by a contingency table followed by a Fisher exact test.
PBMC from healthy donors were stimulated with 10 μM of MELOE-1. After 14 days, the presence of CD4 T cells specific for the different regions of MELOE-1 was assessed by restimulating cells with MELOE-12-21, MELOE-111-30, MELOE-118-37 and MELOE-126-46 peptides, followed by CD4/TNF-α double staining and flow cytometry analysis. Between brackets is indicated the mean % of TNF-α producing CD4 T cells, in positive microcultures. NA: not available.
PBMC from healthy donors or melanoma patients (2·10^5 cells/well) were cultured for 14 days with 10 μM of MELOE-1 whole antigen (46 amino acids) in RPMI medium supplemented with 8% HS, 50 IU/ml of rIL-2 (Chiron, France) and L-Glutamin, in 96-well multiplates. Micro cultures were then restimulated individually with each overlapping peptide (MELOE-12-21, MELOE-111-30, MELOE-118-37, MELOE-126-46 or MELOE-122-46 for melanoma patients) in the presence of 10 μg/mL brefeldin A for 5 hours and the percentage of CD4^+ specific T cells was assessed by TNF-α, IFN-γ or IL-4 intracellular staining A negative control without peptide was included in all experiments.
(§1) Lymphocytes were stimulated for 5 hours in the presence of brefeldin A (10 μg/mL) either with peptide alone (10 μM) in an autopresentation assay or with B-EBV or HLA-class II expressing melanoma cells pulsed 2 hours with the cognate peptide, at a ratio 1:2. In some experiments, blocking mAb against HLA-DP (clone B7.21 from Dr Charron, UMR940, Paris), HLA-DQ (clone SPVL3, Beckman Coulter) or HLA-DR (clone L243, BD Biosciences) were added at a concentration of 12.5 μg/ml. Cells were then stained with APC-conjugated anti-CD4 mAb, fixed with 4% paraformaldehyde, labeled with PE-conjugated anti-cytokine mAb and analyzed by flow cytometry.
Our purpose was to look for the existence of class II helper epitopes all along MELOE-1 sequence (SEQ ID NO: 20), in order to document the immunogenicity of the different regions of this melanoma antigen. We stimulated 2·10^7 PBMC from seven healthy donors with MELOE-1 whole antigen and tested, after a 14-day culture period the presence of CD4 T cells specific for each region of the protein. Microcultures were screened for TNFα production by CD4+ T cells, after restimulation with four MELOE-1 derived overlapping peptides (Table I), in an autopresentation assay. […] On the contrary, the central region 18-37, containing an already described DR11-restricted epitope (24-37) located just at the end of this 20-mer peptide (Rogel et al., 2011), induced specific responses in microcultures deriving from only 2/7 donors (HD9 and HD17, both expressing the DR11 element). In these two donors, we detected 6 and 7% of positive microcultures, containing between 0.6 to 3.7% of TNFα producing CD4 T cells.

The subject of experiment [2] is MELOE-1 specific T cell clones. As to the kind of experiment: HLA restriction of MELOE-1 specific T cell clones (anti-HLA blocking antibodies, HLA-matched B-EBV cell lines). The experiment is classed as cell-based, human. The method, then: FIG. 3: HLA-restricting element of MELOE-1 specific T cell clones and reactivity against HLA-matched melanoma cell lines. The HLA restriction of MELOE-1 specific T cell clones was first assessed using anti-HLA blocking antibodies (upper panel). T cell clones were stimulated for 5 hours in the presence of brefeldin A (10 μg/mL) either with peptide alone (10 μM) in an autopresentation assay and in presence or not of blocking antibodies at a concentration of 12.5 μg/mL. HLA restriction was confirmed with HLA-matched B-EBV cell lines pulsed 2 hrs with the cognate peptide, at a ratio 1:2 (middle panel). Reactivity of each T cell clone against HLA-class II expressing melanoma cells was assessed, in presence or not of exogeneous peptide (lower panel). After 5 hours of stimulation, cells were then stained with APC-conjugated anti-CD4 mAb, fixed with 4% paraformaldehyde, labeled with PE-conjugated anti-TNF-α mAb and analyzed by flow cytometry.
as §1
In order to formally characterize the recognized epitopes, we derived CD4 T cell clones specific for each region of MELOE-1 by limiting dilution, from microcultures of healthy donors or melanoma patients, containing at least 0.5% of specific CD4 T cells. We succeeded to derive CD4 specific T cell clones from HD17, HD22, HD25 and Pt≠3 microcultures, which were reactive against MELOE-12-21 (HD22), MELOE-111-30 (HD17 and Pt≠3) and MELOE-126-46 (HD25). From each cloning experiment, we obtained between one and ten reactive CD4 T cell clones, that turned out to be the same clonotype after CDR3B sequencing (Table IV). A single CD4 T cell clone for each specificity was used for further experiments. The HLA-restriction was determined for each T cell clone, first by using HLA-class II blocking monoclonal antibodies (FIG. 3, upper panel), and further by testing the recognition of HLA-matched B-EBV cell lines loaded with each recognized long peptide (FIG. 3 middle panel). The two T cell clones named 9C12 and 4E2, derived from HD22 and HD25 and specific for MELOE-12-21 and MELOE-126-46 were restricted by the HLA-DQβ1*0202 and the DQβ1*0201 molecules respectively. […]

As to TSREQFLPSEGAACPPWHPS [MELOE-111-30], the entries for the “mean % of TNF-α producing CD4 T cells, in positive microcultures” value in experiment [1] (donor HD24) and in experiment [1] (donor HD27) were “(2% ± 1.4)” and “(5% ± 3.4)”, respectively. In addition, the “frequency of positive microcultures versus the three other regions of MELOE-1” value in experiment [1] (healthy donors, Fisher exact test, p<0.0001) was “significantly higher”. Also, the “healthy donors in whom CD4 responses against the region were detected” value in experiment [1] is recorded as “each tested donor”. Also, the “HLA-restricting element of the peptide-specific T cell clone” value in experiment [2] (T cell clone 1A5) was “HLA-DRβ1*1101”; in experiment [2] (T cell clone 5F9), “HLA-DRβ1*0101”.

As for “SCVGYPDEATSREQFLPSEG (SCVGYPDEATSREQFLPSEC) [MELOE-12-21]”, the positive microcultures in experiment [1] (healthy donor HD28) was 62%. Besides, in experiment [1], the “healthy donors in whom CD4 responses against the region were detected” value is listed as 6/7. In experiment [2] (T cell clone 9C12 (from HD22)), the “HLA-restricting element of the peptide-specific T cell clone” value is listed as “HLA-DQβ1*0202”.
